Earlier results as cited in patent US5654452A, “Lipophilic contrast agents for use in hepatocyte-selective oil-in-water emulsions” (Molecular Biosystems, Inc., priority 1995, dated 1997).

Tested on: reticulendothelial system (RES)
Settings: in vivo

Structure (SMILES): CCOC(=O)c1c(I)cc(I)c(NC(=O)CCCCC(=O)Nc2c(I)cc(I)c(C(=O)OCC)c2I)c1I [iodipamide ethyl esters]
- uptake / liver specificity in reticuloendothelial system: liver specificity is mediated primarily via sequestration by the reticulendothelial system (RES)
